Measurements reported in US20260158009A1 (GENZYME CORPORATION, priority 2023, published 2026).

Assays:
[1] = target: T1, hRIPK1 (aa 1-375) fusion protein (Homo sapiens, UniProt Q13546); assay: ADP-Glo kinase assay: catalytic activity of RIPK1 (autophosphorylation, conversion of ATP to ADP); type: biochemical
T1 construct: hRIPK1 (aa 1-375) fusion protein
T1 sequence (Q13546 1-375): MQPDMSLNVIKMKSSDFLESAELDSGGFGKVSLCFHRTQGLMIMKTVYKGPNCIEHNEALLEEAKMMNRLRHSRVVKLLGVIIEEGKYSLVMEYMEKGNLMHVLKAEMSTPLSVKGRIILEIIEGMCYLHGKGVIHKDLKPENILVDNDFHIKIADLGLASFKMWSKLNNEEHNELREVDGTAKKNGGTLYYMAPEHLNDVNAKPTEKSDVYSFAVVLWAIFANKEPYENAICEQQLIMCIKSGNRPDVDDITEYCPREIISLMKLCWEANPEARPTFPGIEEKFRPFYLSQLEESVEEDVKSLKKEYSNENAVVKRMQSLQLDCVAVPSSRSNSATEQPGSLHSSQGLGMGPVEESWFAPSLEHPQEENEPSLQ
Protocol: The catalytic activity of RIPK1 was measured by monitoring the conversion of Adenosine triphosphate (ATP) to Adenosine diphosphate (ADP) due to autophosphorylation using an ADP-Glo kinase kit (Promega, catalog no. V9104).
In detail, 2 μl recombinantly produced hRIPK1 (aa 1-375) fusion protein (end concentration 3.6 μg/ml) and 2 μl compound (end concentration 33300-1.69 nM; DMSO end concentration 1%) were incubated for 30 minutes at room temperature and then 2 μl ATP (ADP Glo kit, end concentration 50 μM) were added. After another 240 minutes incubation at room temperature, 5 μl Promega ADP-Glo reagent I was added to quench the reaction and deplete unconsumed ATP. After an incubation period of 30 minutes, 10 μl Promega ADP-Glo detection reagent II was added resulting in conversion of ADP to ATP, which generates a light-reaction between luciferase and luciferin. Luminescence was quantified after 30 minutes with a Pherastar FS (BMG LABTECH, Ortenberg).
The adjustment was obtained by nonlinear regression using the Levenberg Marquardt algorithm.

U937 cells = assay: Cellular assay in U937 cells: activity of RIPK1 inhibitors on TNFα/zVAD.fmk-induced cell death (necroptosis), CellTiter 96 AQueous (MTS) readout; type: cell-based; details: Homo sapiens, U-937
From the text: Upon TNF-Receptor I ligation, Ser/Thr kinase RIPK1 is recruited to a transient receptor complex 1. Upon modification of RIPK1 which promotes activation of RIPK1, complex IIb can form, that involves recruitment of RIPK3 and MLKL (mixed lineage-kinase domain-like protein) which then translocates from the cytosol to the plasma membrane to execute cell death (Cai, Z. et al, Nat. Cell Biol. (2014) 16:55-65).
Cell death was quantified in 96 well plates by determination of the amount of live cell using a CellTiter 96 AQueous reagent (Promega), a calorimetric method to measure the number of live cells by reducing tetrazolium compound [3-(4,5-dimethylthiazol-2-yl)-5-(3-carboxymethoxyphenyl)-2-(4-sulfophenyl)-2H-tetrazolium, inner salt; MTS] into formazan. Absorbance of formazan was read at 490 nm. The inhibitory activity of the test compound was quantified in a concentration response curve (CRC) experiment.
Compounds were obtained as 10 mM stock solutions and were diluted 1 to 10 volumes with DMSO to yield a 1 mM solution. From this solution 2 μl were diluted with 998 μl growth medium. 100 μl of 2 μM compound solution was further diluted sequentially with a dilution factor of 2.5 by adding 150 μl growth medium. A total of 10 concentrations were tested ranging from 10 μM to 0.26 nM or from 1 μM to 0.07 nM.
U937 cells were cultured in RPMI1640 Glutamax and 10% heat inactivated FBS. 50 μl cell suspension containing 1×10^6 cells/ml supplemented with 50 μM zVAD.fmk (Benzyloxycarbonyl-Val-Ala-Asp (OMe) fluoromethylketone) and 100 ng/ml recombinant human TNF[…] were dispensed in each well of a 96-well plate. 50 μl of compound dilutions (described in Cellular assay in U937 cells) were added and the cell suspension incubated overnight (18 to 24 hrs) at 37° C., 5% CO2 in a humidified atmosphere (95% rH). High (no compound) and low control (no TNF[…], zVAD.fmk) were tested with 7 replicates; all compound concentrations were tested in duplicates on each experimental plate.
CellTiter 96 Aqueous reagent was mixed (100 μl PMS (phenazine methosulfate) solution/2 ml MTS (3-(4,5-[…])-5-(3-carboxymethoxyphenyl)-2-(4-sulfophenyl)-2H-tetrazolium, inner salt) solution) and 20 μl were added per well. After 4 hrs incubation at 37° C. (5% CO2 95% rH) optical density was measured at 490 nm on a microplate reader (Tecan Infinite M1000).
The % inhibition is expressed as percentage of the maximal inhibition value obtained in the absence of TNFα/zVAD.fmc.

Row | Compound | IC50 [1] | IC50 (U937 cells)
1 | N#Cc1cc2ncn(C[C@H]3CC[C@H](C(=O)N4OCC[C@H]4c4cc(F)cc(F)c4)CC3)c2cc1F [compound 10, trans-1-((4-((S)-3-(3,5-difluorophenyl)isoxazolidine-2-carbonyl)cyclohexyl)methyl)-6-fluoro-1H-benzo[d]imidazole-5-carbonitrile] | 43 nM | 8 nM
2 | N#Cc1cc(F)cc([C@@H]2CCON2C(=O)[C@H]2CC[C@H](Cn3cnc4cc(C#N)c(F)cc43)CC2)c1 [compound 11, trans-1-((4-((S)-3-(3-cyano-5-fluorophenyl)isoxazolidine-2-carbonyl)cyclohexyl)methyl)-6-fluoro-1H-benzo[d]imidazole-5-carbonitrile] | 59 nM | 38 nM
3 | N#Cc1cc(F)cc([C@@H]2CCON2C(=O)[C@H]2CC[C@H](Cn3cnc4cc(F)c(C#N)cc43)CC2)c1 [compound 13, trans-1-((4-((S)-3-(3-cyano-5-fluorophenyl)isoxazolidine-2-carbonyl)cyclohexyl)methyl)-5-fluoro-1H-benzo[d]imidazole-6-carbonitrile] | 33 nM | 5 nM
4 | N#Cc1cc(F)cc([C@@H]2CCON2C(=O)[C@H]2CC[C@H](Cn3c(=O)oc4ccccc43)CC2)c1 [compound 18, trans-3-fluoro-5-((S)-2-(4-((2-oxobenzo[d]oxazol-3(2H)-yl)methyl)cyclohexane-1-carbonyl)isoxazolidin-3-yl)benzonitrile] | 19 nM | 16 nM
5 | N#Cc1cc(F)cc([C@@H]2CCON2C(=O)[C@H]2CC[C@H](Cn3ccc4cc(F)c(C#N)cc43)CC2)c1 [compound 22, trans-1-((4-((S)-3-(3-cyano-5-fluorophenyl)isoxazolidine-2-carbonyl)cyclohexyl)methyl)-5-fluoro-1H-indole-6-carbonitrile] | 20 nM | 2 nM
6 | N#Cc1cc2c(ccn2C[C@H]2CC[C@H](C(=O)N3OCC[C@H]3c3cc(F)cc(F)c3)CC2)cc1F [compound 23, trans-1-((4-((S)-3-(3,5-difluorophenyl)isoxazolidine-2-carbonyl)cyclohexyl)methyl)-5-fluoro-1H-indole-6-carbonitrile] | 21 nM | 3 nM
7 | N#Cc1cc(F)cc([C@@H]2CCON2C(=O)[C@H]2CC[C@H](Cn3cc4ncc(C#N)cc4n3)CC2)c1 [compound 24, trans-2-((4-((S)-3-(3-cyano-5-fluorophenyl)isoxazolidine-2-carbonyl)cyclohexyl)methyl)-2H-pyrazolo[4,3-b]pyridine-6-carbonitrile] | 109 nM | 471 nM
8 | N#Cc1cnc2cn(C[C@H]3CC[C@H](C(=O)N4OCC[C@H]4c4cc(F)cc(F)c4)CC3)nc2c1 [compound 25, trans-2-((4-((S)-3-(3,5-difluorophenyl)isoxazolidine-2-carbonyl)cyclohexyl)methyl)-2H-pyrazolo[4,3-b]pyridine-6-carbonitrile] | 68 nM | 154 nM
9 | N#Cc1cnc2cnn(C[C@H]3CC[C@H](C(=O)N4OCC[C@H]4c4cc(F)cc(F)c4)CC3)c2c1 [compound 26, trans-1-((4-((S)-3-(3,5-difluorophenyl)isoxazolidine-2-carbonyl)cyclohexyl)methyl)-1H-pyrazolo[4,3-b]pyridine-6-carbonitrile] | 20 nM | 2 nM
10 | N#Cc1cc(F)cc([C@@H]2CCON2C(=O)[C@H]2CC[C@H](Cn3ncc4ncc(C#N)cc43)CC2)c1 [compound 27, trans-1-((4-((S)-3-(3-cyano-5-fluorophenyl)isoxazolidine-2-carbonyl)cyclohexyl)methyl)-1H-pyrazolo[4,3-b]pyridine-6-carbonitrile] | 6 nM | 2 nM

Further lines, with some results ahead:

Row | IC50 [1] | Compound | IC50 (U937 cells)
11 | 113 nM | O=C([C@H]1CC[C@H](Cn2cnc3ccccc32)CC1)N1OCC[C@H]1c1cncc(F)c1 [compound 9, trans-(4-((1H-benzo[d]imidazol-1-yl)methyl)cyclohexyl)((S)-3-(5-fluoropyridin-3-yl)isoxazolidin-2-yl)methanone] | 174 nM
12 | 33 nM | N#Cc1cc2c(cc1F)ncn2C[C@H]1CC[C@H](C(=O)N2OCC[C@H]2c2cc(F)cc(F)c2)CC1 [compound 12, trans-1-((4-((S)-3-(3,5-difluorophenyl)isoxazolidine-2-carbonyl)cyclohexyl)methyl)-5-fluoro-1H-benzo[d]imidazole-6-carbonitrile] | 3 nM
13 | 50 nM | N#Cc1cc(F)cc([C@@H]2CCON2C(=O)[C@H]2CC[C@H](Cn3ccc4ncccc43)CC2)c1 [compound 14, trans-3-((S)-2-(4-((1H-pyrrolo[3,2-b]pyridin-1-yl)methyl)cyclohexane-1-carbonyl)isoxazolidin-3-yl)-5-fluorobenzonitrile] | 3 nM
14 | 46 nM | N#Cc1cc(F)cc([C@@H]2CCON2C(=O)[C@H]2CC[C@H](Cn3ccc4cnccc43)CC2)c1 [compound 15, trans-3-((S)-2-(4-((1H-pyrrolo[3,2-c]pyridin-1-yl)methyl)cyclohexane-1-carbonyl)isoxazolidin-3-yl)-5-fluorobenzonitrile] | 11 nM
15 | 39 nM | N#Cc1cc(F)cc([C@@H]2CCON2C(=O)[C@H]2CC[C@H](Cn3ccc4ccncc43)CC2)c1 [compound 16, trans-3-((S)-2-(4-((1H-pyrrolo[2,3-c]pyridin-1-yl)methyl)cyclohexane-1-carbonyl)isoxazolidin-3-yl)-5-fluorobenzonitrile] | 6 nM
16 | 21 nM | N#Cc1cnc2ccn(C[C@H]3CC[C@H](C(=O)N4OCC[C@H]4c4cc(F)cc(F)c4)CC3)c2c1 [compound 17, trans-1-((4-((S)-3-(3,5-difluorophenyl)isoxazolidine-2-carbonyl)cyclohexyl)methyl)-1H-pyrrolo[3,2-b]pyridine-6-carbonitrile] | 2 nM
17 | 28 nM | N#Cc1cc(F)cc([C@@H]2CCON2C(=O)[C@H]2CC[C@H](Cn3ccc4ncc(Cl)cc43)CC2)c1 [compound 19, trans-3-((S)-2-(4-((6-chloro-1H-pyrrolo[3,2-b]pyridin-1-yl)methyl)cyclohexane-1-carbonyl)isoxazolidin-3-yl)-5-fluorobenzonitrile] | 5 nM
18 | 20 nM | O=c1oc2ccccc2n1C[C@H]1CC[C@H](C(=O)N2OCC[C@H]2c2cc(F)cc(F)c2)CC1 [compound 20, trans-3-((4-((S)-3-(3,5-difluorophenyl)isoxazolidine-2-carbonyl)cyclohexyl)methyl)benzo[d]oxazol-2(3H)-one] | 5 nM
19 | 25 nM | O=C([C@H]1CC[C@H](Cn2ccc3ncc(Cl)cc32)CC1)N1OCC[C@H]1c1cc(F)cc(F)c1 [compound 21, trans-(4-((6-chloro-1H-pyrrolo[3,2-b]pyridin-1-yl)methyl)cyclohexyl)((S)-3-(3,5-difluorophenyl)isoxazolidin-2-yl)methanone] | 5 nM
